Patent publication US12290510B2, “Polyvalent derivatives of emoxypine” (Riesner Verwaltungs GMBH, priority 2019, dated 2025)
Where “and” joins values, the source holds several entries; their conditions need not be identical. Equal entries are not always repeated.

Experiments:
[1] = target: T1, α-synuclein fibrils (Homo sapiens, UniProt P37840); test: Disaggregation of α-synuclein fibrils, thioflavin T (ThT) fluorescence emission at 482 nm; type: biochemical
Procedure: FIG. 1A depicts emission intensity of ThT at 482 nm (λexc=450 nm), in the presence of α-synuclein amyloids fibrils, with and without MHP-tren triimine (r70, light blue trace and yellow trace, respectively) from 1 minute to 3 days (72 h), where the bars from left to right in each set of histograms represents: control ThT; MHP tren-triimine; Aggregates+ThT+MHP tren-triimine; control ThT+MHP tren-triimine; and Aggregates+ThT, respectively.
FIG. 2 depicts emission intensity of ThT at 482 nm (λexc=450 nm), in the presence of α-synuclein amyloids fibrils, using Emoxypine r200, Emoxypine r100, MHP-tren triimine (also known as tri imino-emoxypine) r70 (light blue trace and yellow trace, respectively) from 1 minute to 3 days (72 h), where the bars from left to right in each set of histograms represents: α-synuclein+Emoxypine r200; α-synuclein+Emoxypine r100; and α-synuclein+MHP tren-triimine r70, respectively. The far leftmost bar of the graph, titled “Before addition of SOM” represents a sample without emoxypine or MHP tren-triimine, i.e. with 100% of α-synuclein aggregates left.
Disaggregation of α-synuclein fibrils using MHP-tren triimine (i.e., tri imino-emoxypine) was studied. The ratio of MHP-tren triimine:α-synuclein was 70 (r70).
Fluorescence measurements were performed by comparing the emission of thiovlavin T (ThT) in the presence of aggregates, without and with MHP-tren triimine at different times after the addition of MHP-tren triimine, from one minute to several days (λ emission of interest=482 nm, λ excitation=450 nm). Fluorescent measurements were also performed by comparing the emission of thiovlavin T (ThT) in the presence of aggregates and either emoxypine or MHP-tren triimine. The results (see, FIG. 1A-1B, FIG. 2 and Tables 1-2, below) show higher solubilization percentages using MHP-tren triimine as compared to emoxypine. […] The long-term efficiency of the triimine molecule is therefore better than that of its triamide analogue.

[2] = target: T1, α-synuclein fibrils; test: Scanning electron microscope (SEM) images of α-synuclein fibrils without and with the triimine; details: sample with the triimine molecule (FIG. 3B) vs “superaggregated” structures without (FIG. 3A)

Percent of Solubilization ([1]; r100, 1 min)	Percent of Solubilization ([1]; r100, 30 min)	Percent of Solubilization ([1]; r100, 1 h)	Percent of Solubilization ([1]; r100, 24 h)	Percent of Solubilization ([1]; r100, 48 h)	Percent of Solubilization ([1]; r100, 72 h)	Percent of Solubilization ([1]; r200, 1 min)	Percent of Solubilization ([1]; r200, 30 min)	Percent of Solubilization ([1]; r200, 1 h)	Percent of Solubilization ([1]; r200, 24 h)	Percent of Solubilization ([1]; r200, 48 h)	Percent of Solubilization ([1]; r200, 72 h)	Percentage of solubilization ([1]; MHP-tren triimine:α-synuclein ratio 70 (r70), 1 min after addition)	Percentage of solubilization ([1]; r70, 30 min after addition)	Percentage of solubilization ([1]; r70, 1 h after addition)	Percentage of solubilization ([1]; r70, 24 h after addition)	Percentage of solubilization ([1]; r70, 48 h after addition)	Percentage of solubilization ([1]; r70, 72 h (3 days) after addition)	SMILES	Appearance of α-synuclein sample in SEM images [2]
50%	59%	48%	53%	49%	62%	69%	65%	61%	60%	61%	63%	–	–	–	–	–	–	CCc1nc(C)ccc1O [Emoxypine, emoxypine]	–
–	–	–	–	–	–	–	–	–	–	–	–	27%	47.1% and 57%	71%	72.8% and 73%	79.5% and 79%	86% and 86.1%	Cc1ccc(O)c(/C=N/CCN(CC/N=C/c2nc(C)ccc2O)CC/N=C/c2nc(C)ccc2O)n1 [MHP-tren triimine, tri imino-emoxypine]	no apparent fiber or big aggregates-only small dots are visible
